The text below walks through data of ChEMBL document CHEMBL1141126, “Improving the antiviral efficacy and selectivity of HIV-1 reverse transcriptase inhibitor TSAO-T by the introduction of functional groups at the N-3 position” (J Med Chem, 2005).

SMILES strings stand for the structures.

Test [1] relates to Human immunodeficiency virus 2. Put plainly: Effective concentration required to inhibit HIV-2 induced cytopathicity in human MT-4 cell line. The settings on record: Human immunodeficiency virus 2, MT4. The class given is functional, organism-based.
Test [2] has as its system Human immunodeficiency virus 1. Put plainly: Effective concentration required to inhibit HIV-1/138K induced cytopathicity in human CEM cell line. The class given is functional, organism-based. The note with it: Human immunodeficiency virus 1, CCRF-CEM. For orientation: Damage to the host cells serves as the signal in cytopathic effect assays.
Test [3] deals with CCRF-CEM. Kind of test: Cytostatic concentration required to inhibit cell proliferation in human CEM cell line; Range 10-50. The class given is functional.
Test [4] concerns the target Human immunodeficiency virus type 1 reverse transcriptase (Human immunodeficiency virus 1, UniProt Q72547). Kind of test: Inhibitory concentration required to inhibit recombinant HIV-1 reverse transcriptase.
The test system of test [5] is CCRF-CEM. Put plainly: Ratio of cytostatic concentration to effective concentration in human CEM cell line; Range 1000-5000. The class given is functional.
For test [6], the system named is Human immunodeficiency virus 1. Kind of test: Effective concentration required to inhibit HIV-1 induced cytopathicity in human CEM cell line. The class given is functional, organism-based. The note with it: Human immunodeficiency virus 1, CCRF-CEM.
Test [7] deals with Human immunodeficiency virus 2. Put plainly: Effective concentration required to inhibit HIV-2 induced cytopathicity in human CEM cell line. The class given is functional, organism-based. The settings on record: Human immunodeficiency virus 2, CCRF-CEM.
Test [8] has as its system CCRF-CEM. Put plainly: Cytostatic concentration required to inhibit cell proliferation in human CEM cell line. The class given is functional.
Test [9] deals with Human immunodeficiency virus 1. Kind of test: Effective concentration required to inhibit HIV-1 induced cytopathicity in human MT-4 cell line. The class given is functional, organism-based. The note with it: Human immunodeficiency virus 1, MT4.
Test [10] deals with CCRF-CEM. Kind of test: Ratio of cytostatic concentration to effective concentration in human CEM cell line. The class given is functional.

On to `CNC(=O)CCCCn1c(=O)c(C)cn([C@@H]2O[C@H](CO[Si](C)(C)C(C)(C)C)[C@@]3(OS(=O)(=O)C=C3N)[C@H]2O[Si](C)(C)C(C)(C)C)c1=O`, for which the EC50 in [1] was greater than 10 µM; in [2], no less than 2 µM; in [6] it was 0.01 µM; in test [7], greater than 10 µM. Half-maximal cytotoxicity in [3] (CC50) was put at 50 µM. Moreover, the IC50 in test [4] is 0.56 µM. Moreover, in test [5], the SI came out at 5000.

For `CNC(=O)CCCCCn1c(=O)c(C)cn([C@@H]2O[C@H](CO[Si](C)(C)C(C)(C)C)[C@@]3(OS(=O)(=O)C=C3N)[C@H]2O[Si](C)(C)C(C)(C)C)c1=O`, the EC50 in [1] is greater than 125 µM; in test [2] it was 10 µM; in [6], 0.05 µM; in test [7] it was greater than 125 µM; in test [9], 0.03 µM. For the same compound, the 50% inhibitory concentration (IC50) in test [4] turned out to be 2.4 µM. Also, the CC50 in test [8] was 22.1 µM. Also, in test [10], the SI is given as 442.

`COC(=O)/C=C/Cn1c(=O)c(C)cn([C@@H]2O[C@H](CO[Si](C)(C)C(C)(C)C)[C@@]3(OS(=O)(=O)C=C3N)[C@H]2O[Si](C)(C)C(C)(C)C)c1=O`: the concentration giving a half-maximal response (EC50) in test [1] is greater than 250 µM; in [2], 5.5 µM; in [6] it was 0.06 µM; in test [7], greater than 10 µM; in test [9] it was 0.13 µM. For the same compound, the IC50 in [4] came out at 30 µM. Also, the CC50 in [8] was determined as 142 µM. Besides, in test [10], the SI came out at 2367.

Take `Cc1cn([C@@H]2O[C@H](CO[Si](C)(C)C(C)(C)C)[C@@]3(OS(=O)(=O)C=C3N)[C@H]2O[Si](C)(C)C(C)(C)C)c(=O)n(C/C=C/CO)c1=O`: the EC50 was greater than 2 µM in test [1]; 4.5 µM in test [2]; 0.02 µM in test [6]; greater than 2 µM in test [7]; 0.07 µM in test [9]. The IC50 in test [4] came to 4.5 µM. Further, the midpoint of cytotoxicity in [8], the CC50, lay at 4.41 µM. Moreover, the SI in [10] worked out at 220.

Consider `Cc1cn([C@@H]2O[C@H](CO[Si](C)(C)C(C)(C)C)[C@@]3(OS(=O)(=O)C=C3N)[C@H]2O[Si](C)(C)C(C)(C)C)c(=O)n(CCCCO)c1=O`, for which the EC50 in test [1] was greater than 10 µM; in test [2], no less than 10 µM; in test [6], 0.09 µM; in test [7], greater than 10 µM; in test [9], 0.17 µM. Further, in [4], the half-maximal inhibitory concentration (IC50) was found to be 13 µM. This compound gave a CC50 in test [8] of 20.5 µM. Besides, in test [10], the SI turned out to be 227.

Regarding `Cc1cn([C@@H]2O[C@H](CO[Si](C)(C)C(C)(C)C)[C@@]3(OS(=O)(=O)C=C3N)[C@H]2O[Si](C)(C)C(C)(C)C)c(=O)n(CCCN2C(=O)c3ccccc3C2=O)c1=O`, the EC50 in test [1] was greater than 250 µM; in test [2], greater than 250 µM; in [6] it was 0.11 µM; in test [7], greater than 250 µM; in test [9] it was 0.29 µM. In addition, in [4], the IC50 was greater than 500 µM. In addition, the CC50 in test [8] was greater than 250 µM. Moreover, the SI in test [10] was greater than 2272.

As for `Cc1cn([C@@H]2O[C@H](CO[Si](C)(C)C(C)(C)C)[C@@]3(OS(=O)(=O)C=C3N)[C@H]2O[Si](C)(C)C(C)(C)C)c(=O)n(CCCNC(=O)OCc2ccccc2)c1=O`, the concentration for a half-maximal effect (EC50) in [1] is greater than 50 µM; in test [2], greater than 50 µM; in [6] it was 0.15 µM; in test [7] it was greater than 50 µM; in [9], 0.17 µM. Moreover, in test [4], the half-inhibitory concentration (IC50) was greater than 500 µM. It took 229 µM to reach half-maximal cytotoxicity in test [8] (CC50). Moreover, in [10], the SI stood at 1526.

As for `CCCCOC(=O)CN(CCCn1c(=O)c(C)cn([C@@H]2O[C@H](CO[Si](C)(C)C(C)(C)C)[C@@]3(OS(=O)(=O)C=C3N)[C@H]2O[Si](C)(C)C(C)(C)C)c1=O)CC(=O)OCCCC`, the EC50 in test [1] was greater than 250 µM; in [2] it was greater than 250 µM; in test [6], 3.5 µM; in [7] it was greater than 250 µM; in test [9] it was 12.8 µM. Besides, the half-maximal inhibitory concentration (IC50) in test [4] was greater than 500 µM. The compound further showed a cytotoxic concentration (CC50) in test [8] greater than 250 µM. Further, in test [10], the SI is 71.

For orientation: EC50 means the concentration needed to bring the measured effect to its halfway point. Read a high EC50 as a less potent agent. Broadly, the CC50 is the concentration that lowers cell viability or growth by half. A high value points to better tolerance by the cells. For orientation: IC50 means the concentration that gives 50% inhibition.
